Several values for one entry are separate records, joined by “and”; a condition that tells them apart may be missing. Equal values may be shown once.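 Following 48 hours of exposure in 96-well plates, responses at five concentrations were used to interpolate endpoints linearly. Here, GI50 denotes the concentration required for 50% inhibition of growth. TGI is the concentration that stops growth completely.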
Columns and labels:
Test in all cases: NCI tumour cell line growth inhibition, 48 h
[1] = system: SW-620 colon
[2] = system: SNB-19 CNS
[3] = system: M14 melanoma
[4] = system: U251 CNS
[5] = system: HS 578T breast
[6] = system: HCC-2998 colon
[7] = system: RXF 393 renal
[8] = system: ACHN renal
[9] = system: HL-60(TB) leukemia
[10] = system: EKVX NSCLC

SMILES	GI50 [1]	TGI [1]	GI50 [2]	TGI [2]	GI50 [3]	TGI [3]	GI50 [4]	TGI [4]	GI50 [5]	TGI [5]	GI50 [6]	TGI [6]	GI50 [7]	TGI [7]	GI50 [8]	TGI [8]	GI50 [9]	TGI [9]	GI50 [10]	TGI [10]
N#Cc1ccc(N2Cc3cc(Cl)ccc3OC3=C2C(=O)N(Cc2ccc(F)cc2)C3=O)cc1	0.411 µM	1.02 µM	1.54 µM	9.24 µM	2.81 µM	9.33 µM	0.672 µM	1.68 µM	1.02 µM	13.6 µM	0.973 µM	2.89 µM	0.481 µM	0.943 µM	0.479 µM	0.913 µM	0.23 µM	0.469 µM	1.08 µM	4.24 µM
Cc1cc(N2CCN(C)CC2)nc(N(CCNc2ccnc3cc(Cl)ccc23)Cc2ccco2)n1	3.04 µM	12.4 µM	4.92 µM	16.5 µM	1.78 µM	3.3 µM	3.11 µM	10.2 µM	4.42 µM	35.7 µM	2.65 µM	11.1 µM	1.82 µM	4.88 µM	5.08 µM	17.5 µM	2.25 µM	5.97 µM	5.58 µM	19.7 µM
O=C(O)CC1C(=O)OC2C3COC(=O)c4cc(O)c(O)c(O)c4-c4c(cc(O)c(O)c4O)C(=O)OC2C(OC(=O)c2cc(O)c(O)c4c2C1C(O)C(=O)O4)C(OC(=O)c1cc(O)c(O)c(O)c1)O3 (stereo not drawn)		> 100 µM		> 100 µM		> 100 µM		73 µM		> 100 µM		> 100 µM		> 100 µM		> 100 µM		30.4 µM		66.8 µM
O=C(NC1CCNCC1)c1[nH]ncc1NC(=O)c1c(Cl)cccc1Cl	0.365 µM and 0.425 µM	> 10 µM	0.361 µM and 0.336 µM	> 60 µM	1.25 µM and 0.792 µM	7.06 µM and 6.17 µM	0.328 µM and 0.329 µM	> 59.7 µM	0.307 µM and 0.329 µM	3.83 µM and > 2.71 µM	0.396 µM and 0.328 µM	12 µM and > 6.08 µM	0.236 µM and 0.202 µM	0.635 µM and 0.464 µM	2.95 µM and 3.03 µM	> 100 µM	0.305 µM and 0.285 µM	1.09 µM and 1.64 µM	0.998 µM	> 10 µM
CCCCCCCCCCCCNC(=O)[C@H]1CSC(c2cc(Br)cs2)N1 (stereo partly drawn)	1.4 µM	4.19 µM	2.48 µM	8.49 µM	0.858 µM	1.65 µM	1.05 µM	2.26 µM	1.09 µM	2.51 µM	2.73 µM	9.41 µM	1.18 µM	2.6 µM	2.01 µM	6.54 µM	1.01 µM	2.49 µM	0.918 µM	1.77 µM
NC(Cc1ccc(O)cc1)C(=O)N/N=C/c1ccc(N(CCCl)CCCl)cc1 (stereo not drawn)	16 µM	> 100 µM	29.9 µM	> 100 µM	17.5 µM	81.2 µM	27.8 µM	> 100 µM	32 µM	> 100 µM	24.1 µM	> 100 µM	20.6 µM	> 100 µM	6.42 µM	> 100 µM	0.0757 µM	14.6 µM	24.2 µM	> 100 µM
O=C(N/N=C/c1ccncc1)c1ccc(C(F)(F)F)nc1Nc1cccc(C(F)(F)F)c1	2.66 µM	12.8 µM	2.67 µM	11.8 µM	1.34 µM	4.03 µM	2.47 µM	11.4 µM	2.02 µM	8.51 µM	2.15 µM	8.94 µM	1.51 µM	5.28 µM	3.46 µM	12.1 µM	1.82 µM	8.2 µM	1.39 µM	8.87 µM
O=Cc1c[nH]c2ccc(-c3csc4ccccc34)cc12	4.31 µM	> 100 µM	5.98 µM	> 100 µM	3.19 µM	> 100 µM	3.64 µM	21 µM	2.3 µM	9.55 µM	15.5 µM	> 100 µM	1.58 µM	5.13 µM	5.11 µM	> 100 µM	2.48 µM	8.38 µM	2.75 µM	> 100 µM
COc1ccc(/C=C/c2ccnc3ccccc23)cc1		36.3 µM		36.8 µM		31.7 µM		31.9 µM		48.8 µM		36.6 µM		35.4 µM		27 µM		20.1 µM		25.8 µM
O=C1/C(=C\c2ccc([N+](=O)[O-])cc2)CS(=O)(=O)C/C1=C/c1ccc([N+](=O)[O-])cc1	0.0889 µM	0.481 µM and 2.74 µM		22.2 µM	0.131 µM	0.331 µM and 2.51 µM	0.0731 µM	0.483 µM and 2 µM	0.447 µM	39.4 µM	11.3 µM	25.6 µM		1.45 µM	0.19 µM	0.405 µM and 2.19 µM	0.0138 µM	0.145 µM	0.348 µM	4.95 µM
O=c1c(-c2ccc3c(c2)OCO3)coc2c(CO)c(O)ccc12	4.06 µM	18.5 µM	2.87 µM	10.3 µM	3.2 µM	14.8 µM	1.92 µM	5.03 µM	2.28 µM	7.12 µM	2.01 µM	3.89 µM	0.941 µM	2.29 µM	1.82 µM	5.34 µM	2.25 µM	5.9 µM	2.79 µM	8.81 µM
COc1ccc(-c2nnc(Nc3nc(O)c(C4=c5cc(OC(F)(F)F)ccc5=NC4=O)s3)o2)cc1	38.2 µM	> 100 µM	9.67 µM	31.2 µM	8.76 µM	28.5 µM	12.4 µM	30.7 µM	38.3 µM	> 100 µM	13.4 µM	28.6 µM	13.9 µM	29.1 µM	22.3 µM	> 100 µM	26.6 µM	47.7 µM	31.6 µM	71.7 µM
Cc1ccc(C2NC(=S)N3C(c4ccc(C)cc4)NC(=S)N23)cc1 (stereo not drawn)	3.78 µM	17.9 µM	5.06 µM	17.7 µM	3.01 µM	11.2 µM	3.91 µM	14.3 µM	4.74 µM	25 µM	4.51 µM	17.4 µM	3.27 µM	14.1 µM	10.1 µM	21.7 µM	1.88 µM	5.67 µM	7.93 µM	25.3 µM
